Laboratory results published in ChEMBL document CHEMBL1201862, “PubChem BioAssay data set” (2004).
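Briefly, cells in 96-well plates were exposed to five compound concentrations for 48 h, and endpoints were estimated by linear interpolation. GI50 is the concentration that inhibits growth by half.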 Activity calls are given as the source filed them. Rule as the data show it: active = GI50 up to about 1.1 µM and inactive = higher.

Experiments:
Assay in all cases: NCI tumour cell line growth inhibition, 48 h
UACC-257 = test system: UACC-257
A498 = test system: A498
786-0 = test system: 786-0
U-251 = test system: U-251
SK-MEL-5 = test system: SK-MEL-5
SK-MEL-28 = test system: SK-MEL-28
CAKI-1 = test system: CAKI-1
MCF7 = test system: MCF7
NCI-H522 = test system: NCI-H522
Malme-3M = test system: Malme-3M
M14 = test system: M14
PC-3 = test system: PC-3
NCI-H460 = test system: NCI-H460
OVCAR-4 = test system: OVCAR-4
SW-620 = test system: SW-620
UO-31 = test system: UO-31
SF-295 = test system: SF-295
EKVX = test system: EKVX
NCI-H23 = test system: NCI-H23
RPMI-8226 = test system: RPMI-8226
MDA-MB-435 = test system: MDA-MB-435
SN12C = test system: SN12C
HOP-62 = test system: HOP-62
RXF 393 = test system: RXF 393
HCT-15 = test system: HCT-15
SNB-75 = test system: SNB-75
HCC 2998 = test system: HCC 2998
OVCAR-3 = test system: OVCAR-3
SK-MEL-2 = test system: SK-MEL-2
KM12 = test system: KM12
HT-29 = test system: HT-29
IGROV-1 = test system: IGROV-1
A549 = test system: A549
OVCAR-5 = test system: OVCAR-5
BT-549 = test system: BT-549
SNB-19 = test system: SNB-19
HOP-92 = test system: HOP-92
SF-268 = test system: SF-268
NCI/ADR-RES = test system: NCI/ADR-RES
UACC-62 = test system: UACC-62
COLO 205 = test system: COLO 205
MDA-MB-231 = test system: MDA-MB-231
HCT-116 = test system: HCT-116
ACHN = test system: ACHN
Hs-578T = test system: Hs-578T
DU-145 = test system: DU-145
TK-10 = test system: TK-10
SF-539 = test system: SF-539
CCRF-CEM = test system: CCRF-CEM
T47D = test system: T47D

O=c1c2ccccc2nnn1-c1n[nH]c2ccccc12
GI50 (UACC-257): > 100 µM (inactive)
GI50 (A498): > 100 µM (inactive)
GI50 (786-0): > 100 µM (inactive)
GI50 (U-251): > 100 µM (inactive)
GI50 (SK-MEL-5): 37.8 µM (inactive)
GI50 (SK-MEL-28): > 100 µM (inactive)
GI50 (CAKI-1): > 100 µM (inactive)
GI50 (MCF7): > 100 µM (inactive)
GI50 (NCI-H522): > 100 µM (inactive)
GI50 (Malme-3M): > 100 µM (inactive)
GI50 (M14): > 100 µM (inactive)
GI50 (PC-3): > 100 µM (inactive)
GI50 (NCI-H460): > 100 µM (inactive)
GI50 (OVCAR-4): > 100 µM (inactive)
GI50 (SW-620): > 100 µM (inactive)
GI50 (UO-31): > 100 µM (inactive)
GI50 (SF-295): > 100 µM (inactive)
GI50 (EKVX): > 100 µM (inactive)
GI50 (NCI-H23): > 100 µM (inactive)
GI50 (RPMI-8226): > 100 µM (inactive)
GI50 (MDA-MB-435): > 100 µM (inactive)
GI50 (SN12C): > 100 µM (inactive)
GI50 (HOP-62): > 100 µM (inactive)
GI50 (RXF 393): > 100 µM (inactive)
GI50 (HCT-15): > 100 µM
GI50 (SNB-75): > 100 µM (inactive)
GI50 (HCC 2998): > 100 µM (inactive)
GI50 (OVCAR-3): > 100 µM (inactive)
GI50 (SK-MEL-2): > 100 µM (inactive)
GI50 (KM12): > 100 µM (inactive)
GI50 (HT-29): 63.4 µM (inactive)
GI50 (IGROV-1): > 100 µM (inactive)
GI50 (A549): > 100 µM (inactive)
GI50 (OVCAR-5): 13.9 µM (inactive)
GI50 (BT-549): > 100 µM (inactive)
GI50 (SNB-19): > 100 µM (inactive)
GI50 (HOP-92): > 100 µM (inactive)
GI50 (SF-268): > 100 µM (inactive)
GI50 (NCI/ADR-RES): > 100 µM (inactive)
GI50 (UACC-62): > 100 µM (inactive)
GI50 (COLO 205): > 100 µM (inactive)
GI50 (MDA-MB-231): > 100 µM (inactive)
GI50 (HCT-116): > 100 µM (inactive)
GI50 (ACHN): > 100 µM (inactive)
GI50 (Hs-578T): > 100 µM (inactive)
GI50 (DU-145): > 100 µM (inactive)
GI50 (TK-10): > 100 µM (inactive)
GI50 (SF-539): > 100 µM (inactive)
GI50 (CCRF-CEM): > 100 µM (inactive)
GI50 (T47D): > 100 µM (inactive)
